# Paper PMC11602988 (The Journal of Biological Chemistry, 2024)
# Residue numbers refer to the chain shown, from its start. Like-named read-outs stand apart in the source and are kept apart here.
# Tests used:
# OCT1 WT = target: T1, OCT1 WT (Homo sapiens, UniProt O15245); assay: Uptake screening (transport ratio over empty vector), HEK293 cells overexpressing OCT1 WT; assay type: cell-based; parameters: expressed in transfected cells;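 also: intracellular substrate levels quantified by HPLC–tandem mass spectrometry after uptake in HBSS+ buffer at 37 °C, stable Flp-In HEK293 lines, fold change versus empty vector–transfected cells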
# T1 sequence (O15245 1-554): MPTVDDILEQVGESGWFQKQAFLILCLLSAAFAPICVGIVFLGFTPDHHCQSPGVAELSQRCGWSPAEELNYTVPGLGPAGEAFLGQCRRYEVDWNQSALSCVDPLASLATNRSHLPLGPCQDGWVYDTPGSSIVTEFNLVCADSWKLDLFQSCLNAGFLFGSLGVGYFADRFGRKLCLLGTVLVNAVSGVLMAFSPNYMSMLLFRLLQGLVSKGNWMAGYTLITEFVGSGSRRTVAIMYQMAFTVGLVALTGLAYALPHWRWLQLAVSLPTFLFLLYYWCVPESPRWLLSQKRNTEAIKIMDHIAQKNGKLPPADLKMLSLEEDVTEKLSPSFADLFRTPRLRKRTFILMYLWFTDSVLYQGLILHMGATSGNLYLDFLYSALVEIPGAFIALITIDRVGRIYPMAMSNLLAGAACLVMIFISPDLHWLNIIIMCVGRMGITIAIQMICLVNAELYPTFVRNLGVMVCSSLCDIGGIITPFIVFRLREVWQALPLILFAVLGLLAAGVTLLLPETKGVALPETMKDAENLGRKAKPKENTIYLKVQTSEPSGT
# Method: (§1) All experiments were carried out using transporter-overexpressing HEK293 cells. […] Cells were cultivated in Dulbecco’s Modified Eagle’s medium supplemented with 10% fetal calf serum, 100 U/ml penicillin, and 100 μg/ml streptomycin. Cells were passaged twice a week and kept in culture for no longer than 30 passages.
# (§2) For uptake studies, 300,000 HEK293 cells were plated in each well of 24-well plates precoated with poly-D-lysine 48 prior to the experiment. On the day of the experiment, cells were washed once with prewarmed to 37 °C HBSS+ (Hank’s balanced salt solution supplemented with 10 mM Hepes, both Sigma-Aldrich). […] Uptake was stopped by adding ice-cold HBSS+ and cells were washed twice with ice-cold buffer before cell lysis was done using 80% acetonitrile containing an appropriate internal standard for eventual mass spectrometry. Relative quantification was done by comparison of transporter-overexpressing cells to empty vector–transfected controls. For uptake kinetic experiments, cells were incubated with increasing concentrations of substrate dissolved in HBSS+. Absolute quantification was done later by comparison to a standard curve in lysis buffer with known concentration.
# (§3) Intracellular drug concentrations were detected and quantified by HPLC coupled to mass spectrometry. […] Substance-specific conditions were used to adjust the retention times of the analytes.
# (§4) Transport ratios were determined as relative fold-increase of the uptake in transporter-overexpressing cells over empty vector–transfected control cells. For transport kinetic experiments, absolute substrate quantification was done by signal comparison to a standard curve with known concentrations. Net uptake was then determined by subtracting the uptake into empty vector–transfected cells from transporter-overexpressing cells. […] Vmax defines the maximum transport velocity, Km refers to the substrate concentration required to reach half vmax. The intrinsic clearance Clint is the ratio of vmax over Km.
# OCT1 Phe244Ala variant = target: T2, OCT1 Phe244Ala variant (Homo sapiens, UniProt O15245, F244A); assay: Uptake screening (transport ratio over empty vector), HEK293 cells overexpressing OCT1 Phe244Ala variant; assay type: cell-based; parameters: expressed in transfected cells;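 also: stably transfected HEK293 cells, intracellular substrate quantified by HPLC-tandem mass spectrometry in cell lysates, uptake in HBSS+ buffer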
# T2 sequence (O15245 1-554 F244A): T1 sequence (O15245 1-554) with F244A
# Method: as §1, §2, §3, §4
# [1] = uptake ratio of OCT1 WT-overexpressing HEK293 cells over empty vector
# [2] = Phe244Ala uptake relative to OCT1 WT
# [3] = uptake ratio of OCT1 Phe244Ala-overexpressing HEK293 cells over empty vector
# [4] = uptake ratio over empty vector, HEK293 cells overexpressing OCT1 WT
# [5] = Phe244Ala uptake relative to WT
# [6] = uptake ratio over empty vector, HEK293 cells overexpressing OCT1 Phe244Ala
SMILES,Mean_transport_ratio_WT (OCT1 WT; [4]),relative_Phe244Ala_uptake_in% (OCT1 Phe244Ala variant; [5]) [%],Mean_transport_ratio_Phe244Ala (OCT1 Phe244Ala variant; [6]),also measured
"CNC(C)Cc1ccc2c(c1)OCO2 (stereo not shown) [3,4-Methylendioxy-N-methylamphetamin]",,,,Mean_transport_ratio_WT (OCT1 WT; [1]): 1.723; relative_Phe244Ala_uptake_in% (OCT1 Phe244Ala variant; [2]): 158.013%; Mean_transport_ratio_Phe244Ala (OCT1 Phe244Ala variant; [3]): 2.142
COc1cc(CCN)ccc1O [3-Methoxy-p-tyramine],,,,Mean_transport_ratio_WT (OCT1 WT; [1]): 3.981; relative_Phe244Ala_uptake_in% (OCT1 Phe244Ala variant; [2]): 27.805%; Mean_transport_ratio_Phe244Ala (OCT1 Phe244Ala variant; [3]): 1.829
Cc1cc(O)cc(C)c1OCC(C)N (stereo not shown) [4-Hydroxy mexiletine],,,,Mean_transport_ratio_WT (OCT1 WT; [1]): 3.163; relative_Phe244Ala_uptake_in% (OCT1 Phe244Ala variant; [2]): 23.363%; Mean_transport_ratio_Phe244Ala (OCT1 Phe244Ala variant; [3]): 1.505
COc1ccc2[nH]cc(CCN)c2c1 [5-Methoxytryptamine],,,,Mean_transport_ratio_WT (OCT1 WT): 3.73; Mean_transport_ratio_Phe244Ala (OCT1 Phe244Ala variant): 1.602; relative_Phe244Ala_uptake_in% (OCT1 Phe244Ala variant): 22.030%
c1cnn(C2CCNCC2)c1 [762240-09-5],4.49,3.421,1.119,
Cc1cc(N)c(OC(C)C)cc1C1CCNCC1 [1380575-45-0],4.645,149.293,6.442,
O=C(O[C@H]1C[N+]2(CCCOc3ccccc3)CCC1CC2)C(O)(c1cccs1)c1cccs1 [(R)-Aclidinium],5.059,126.640,6.14,
CNC[C@H](O)c1cccc(O)c1 [(R)-Phenylephrine],8.777,,3.864,relative_Phe244Ala_uptake_in% (OCT1 Phe244Ala variant; [2]): 36.831%
CN(C)CCc1c[nH]c2ccc(C[C@@H]3COC(=O)N3)cc12 [(R)-Zolmitriptan],,,,Mean_transport_ratio_WT (OCT1 WT): 34.392; Mean_transport_ratio_Phe244Ala (OCT1 Phe244Ala variant): 13.515; relative_Phe244Ala_uptake_in% (OCT1 Phe244Ala variant): 37.478%
"CC[C@@H](CO)NCCN[C@@H](CC)CO [(R,R)-Ethambutol]",,,,Mean_transport_ratio_WT (OCT1 WT): 26.39; Mean_transport_ratio_Phe244Ala (OCT1 Phe244Ala variant): 16.298; relative_Phe244Ala_uptake_in% (OCT1 Phe244Ala variant): 60.253%
"CC[C@H](CO)NCCN[C@@H](CC)CO [(R,S)-Ethambutol]",,,,Mean_transport_ratio_WT (OCT1 WT): 17.35; Mean_transport_ratio_Phe244Ala (OCT1 Phe244Ala variant): 12.934; relative_Phe244Ala_uptake_in% (OCT1 Phe244Ala variant): 72.992%
O=C(OC1C[N+]2(CCCOc3ccccc3)CCC1CC2)C(O)(c1cccs1)c1cccs1 [(S)-Aclidinium],4.495,205.468,8.181,
CCN[C@@H](C)Cc1cccc(C(F)(F)F)c1 [(S)-Fenfluramine],,,,Mean_transport_ratio_WT (OCT1 WT): 1.065; Mean_transport_ratio_Phe244Ala (OCT1 Phe244Ala variant): 1.119; relative_Phe244Ala_uptake_in% (OCT1 Phe244Ala variant): 183.841%
CN(C)CCc1c[nH]c2ccc(C[C@H]3COC(=O)N3)cc12 [(S)-Zolmitriptan],,,,Mean_transport_ratio_WT (OCT1 WT): 30.121; Mean_transport_ratio_Phe244Ala (OCT1 Phe244Ala variant): 8.091; relative_Phe244Ala_uptake_in% (OCT1 Phe244Ala variant): 24.350%
"CC[C@@H](CO)NCCN[C@@H](CC)CO [(S,S)-Ethambutol]",,,,Mean_transport_ratio_WT (OCT1 WT): 21.59; Mean_transport_ratio_Phe244Ala (OCT1 Phe244Ala variant): 11.185; relative_Phe244Ala_uptake_in% (OCT1 Phe244Ala variant): 49.465%
"CN(C)c1ccc(/C=C/c2cc[n+](C)cc2)cc1 [ASP^+, 4-(4-(dimethylamino)styryl)-N-methylpyridinium]",12.491,62.977,8.237,
CC(=O)OC(C)C[N+](C)(C)C (stereo not drawn) [Acetyl-beta-Methylcholin],46.311,14.392,7.521,
CN(C)CCc1c[nH]c2ccc(CS(=O)(=O)N3CCCC3)cc12 [Almotriptan],3.882,113.777,4.279,
Nc1ccncc1N [Amifampridine],4.689,7.302,1.269,
N=C(N)NC(=O)c1nc(Cl)c(N)nc1N [Amiloride],,,,Mean_transport_ratio_WT (OCT1 WT): 37.597; Mean_transport_ratio_Phe244Ala (OCT1 Phe244Ala variant): 23.504; relative_Phe244Ala_uptake_in% (OCT1 Phe244Ala variant): 61.492%
CCN1CCCC1CNC(=O)c1cc(S(=O)(=O)CC)c(N)cc1OC (stereo not shown) [Amisulpride],8.435,97.893,8.279,
CC[N+](CC)(CC)Cc1ccccc1 [Benzyltriethylammonium],56.17,82.289,46.399,

SMILES,Mean_transport_ratio_WT (OCT1 WT; [4]),relative_Phe244Ala_uptake_in% (OCT1 Phe244Ala variant; [5]) [%],Mean_transport_ratio_Phe244Ala (OCT1 Phe244Ala variant; [6]),also measured
COc1ccc2cc3[n+](cc2c1OC)CCc1cc2c(cc1-3)OCO2 [Berberine],11.952,63.219,7.924,
NCC(O)c1ccccc1 (stereo not shown) [Bisnorephedrine],1.295,116.872,1.345,
CCCCNC(=N)NC(=N)N [Buformin],33.648,42.469,14.865,
CCCC[N+]1(C)[C@@H]2C[C@@H](OC(=O)[C@H](CO)c3ccccc3)C[C@H]1[C@@H]1O[C@@H]12 (stereo partly shown) [Butylscopolamine],24.775,125.561,30.852,
NC(N)=NC(N)=Nc1ccc(Cl)cc1 [CPB],17.903,76.322,13.901,
CN=C(NC#N)NCCSCc1nc[nH]c1C [Cimetidin],2.536,103.374,2.588,
C[N+]12CCC(CC1)C(OC(=O)C(O)(c1ccccc1)c1ccccc1)C2 (stereo not shown) [Clidinium],30.863,112.238,34.518,
CC(C)(C)NCC(O)c1ccc(O)c(O)c1 (stereo not shown) [Colterol],5.025,33.880,2.364,
c1c2c(cc3c1OCO3)-c1cc3ccc4c(c3c[n+]1CC2)OCO4 [Coptisine],12.003,90.627,10.972,
CC1(C)N=C(N)N=C(N)N1c1ccc(Cl)cc1 [Cycloguanil],17.269,95.814,16.588,
N=C(N)N1CCc2ccccc2C1 [Debrisoquin],19.246,108.342,20.768,
COc1cc2c(cc1OC)-c1c(C)c3ccc(OC)c(OC)c3c[n+]1CC2 [Dehydrocorydaline],9.385,100.287,9.409,
CC[N+](CC)(CC(=O)Nc1c(C)cccc1C)Cc1ccccc1 [Denatonium],14.264,121.267,17.085,
C[N+]1(C)CCN(c2ccccc2)CC1 [Dimethylphenylpiperazinium],34.77,70.889,24.939,
NC(=Nc1ccccc1)Nc1ccccc1 [Diphenylguanidine],,,,Mean_transport_ratio_WT (OCT1 WT): 2.037; Mean_transport_ratio_Phe244Ala (OCT1 Phe244Ala variant): 1.952; relative_Phe244Ala_uptake_in% (OCT1 Phe244Ala variant): 91.817%
CC(C)N(CCC(C(N)=O)(c1ccccc1)c1ccccn1)C(C)C (stereo not shown) [Disopyramide],1.334,27.882,1.093,
CC[N+](C)(C)c1cccc(O)c1 [Edrophonium],25.947,101.017,26.201,
CCC1(C2=NCCN2)Cc2ccccc2O1 (stereo not shown) [Efaroxan],1.81,45.757,1.371,
Nc1nc(=O)n([C@@H]2CS[C@H](CO)O2)cc1F [Emtricitabine],2.95,51.794,2.01,
COc1cc2c(cc1OC)-c1cc3ccc4c(c3c[n+]1CC2)OCO4 [Epiberberine],22.185,84.587,18.92,
Cc1cccc(C)c1OCC(C)N (stereo not shown) [Mexiletine],,,,relative_Phe244Ala_uptake_in% (OCT1 Phe244Ala variant; [2]): 53.635%
